Experimental data taken from PubChem BioAssay AID192 (DTP/NCI, 2004).
Several values for one entry are separate records, joined by “and”; a condition that tells them apart may be missing. Identical values can stand only once. Toxic doses and inconclusive results are not listed. How the source made its calls: active means survival T/C of 150% or more; inactive means T/C below 125% in these data.

Tested on: BDF1 mice, B16 melanoma ip, median survival T/C
Test: NCI In Vivo Anticancer Drug Screen. Data for tumor model B16 Melanoma (intraperitoneal) in B6D2F1 (BDF1) mice
Settings: endpoint: median survival time, higher = longer survival
Outline: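 The ratio T/C compares compound-treated mice with vehicle-treated controls, using survival or tumor size as the endpoint in a transplantable tumor model.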

[1] = dose: 6.25 mg/kg/injection, schedule: Q01DX009 (ip), vehicle: saline
[2] = dose: 12.5 mg/kg/injection, schedule: Q01DX009 (ip), vehicle: saline
[3] = dose: 25.0 mg/kg/injection, schedule: Q01DX009 (ip), vehicle: saline
[4] = dose: 50.0 mg/kg/injection, schedule: Q01DX009 (ip), vehicle: saline
[5] = dose: 100.0 mg/kg/injection, schedule: Q01DX009 (ip), vehicle: saline
[6] = dose: 50.0 mg/kg/injection, schedule: Q01DX009 (ip), vehicle: saline with Tween-80
[7] = dose: 100.0 mg/kg/injection, schedule: Q01DX009 (ip), vehicle: saline with Tween-80
[8] = dose: 1.5 mg/kg/injection, schedule: Q01DX009 (ip), vehicle: saline with Tween-80
[9] = dose: 3.0 mg/kg/injection, schedule: Q01DX009 (ip), vehicle: saline with Tween-80
[10] = dose: 12.5 mg/kg/injection, schedule: Q01DX009 (ip), vehicle: saline with Tween-80
[11] = dose: 100.0 mg/kg/injection, schedule: Q01DX009 (ip), vehicle: Klucel (hydroxypropylcellulose) (HPC)
[12] = dose: 200.0 mg/kg/injection, schedule: Q01DX009 (ip), vehicle: Klucel (hydroxypropylcellulose) (HPC)
[13] = dose: 400.0 mg/kg/injection, schedule: Q01DX009 (ip), vehicle: Klucel (hydroxypropylcellulose) (HPC)
[14] = dose: 200.0 mg/kg/injection, schedule: Q01DX009 (ip), vehicle: saline with Tween-80
[15] = dose: 50.0 mg/kg/injection, schedule: Q01DX009 (ip), vehicle: Klucel (hydroxypropylcellulose) (HPC)
[16] = dose: 25.0 mg/kg/injection, schedule: Q01DX009 (ip), vehicle: Klucel (hydroxypropylcellulose) (HPC)
[17] = dose: 100.0 mg/kg/injection, schedule: Q04DX003 (ip), vehicle: saline with Tween-80
[18] = dose: 200.0 mg/kg/injection, schedule: Q04DX003 (ip), vehicle: saline with Tween-80
[19] = dose: 25.0 mg/kg/injection, schedule: Q01DX009 (ip), vehicle: saline with Tween-80

Measured: T/C

CCCC(Cc1ccccc1)N1CCCC1 (stereo not given)
inactive: dose: 1.56 mg/kg/injection, schedule: Q01DX009 (ip), vehicle: saline 105 % of control | dose: 3.12 mg/kg/injection, schedule: Q01DX009 (ip), vehicle: saline 100 % of control | [1] 92 % of control | [2] 115 % of control | [3] 102 % of control

Cc1cc(O)ccc1[N+](=O)[O-]
inactive: [3] 119 % of control | [4] 123 % of control | [5] 104 % of control

COC(=O)c1cccc(C)c1O
inactive: [6] 100 % of control | [7] 112 % of control

O=c1cc(CCl)[nH]nc1CCl
inactive: [8] 107 % of control | [9] 116 % of control | dose: 3.12 mg/kg/injection, schedule: Q01DX009 (ip), vehicle: saline with Tween-80 123 % of control | [10] 124 % of control

O=C1C(CCSc2ccccc2)C(=O)N(c2ccccc2)C1c1ccccc1 (stereo not given)
inactive: [11] 116 % of control | [12] 113 % of control | [13] 110 % of control

O=C(O)CCS(=O)(=O)CCC(=O)O
inactive: [6] 102 % of control | [7] 100 % of control | [14] 102 % of control

Brc1nnnn1-c1ccccc1
inactive: [11] 90 % of control | [12] 93 % of control

O=C1NC(O)CCN1C1OC(CO)C(O)C1O (stereo not given)
inactive: [3] 111 % of control and 124 % of control | [4] 110 % of control and 121 % of control | [5] 102 % of control and 106 % of control | dose: 200.0 mg/kg/injection, schedule: Q01DX009 (ip), vehicle: saline 96 % of control and 120 % of control | dose: 400.0 mg/kg/injection, schedule: Q01DX009 (ip), vehicle: saline 106 % of control and 118 % of control | dose: 800.0 mg/kg/injection, schedule: Q01DX009 (ip), vehicle: saline 105 % of control and 107 % of control

CC(=O)[O][Hg][c]1s[c]([Hg][O]C(C)=O)[c]([Hg][O]C(C)=O)[c]1[Hg][O]C(C)=O
inactive: dose: 0.75 mg/kg/injection, schedule: Q01DX009 (ip), vehicle: saline with Tween-80 102 % of control | [8] 92 % of control | [9] 87 % of control | dose: 6.0 mg/kg/injection, schedule: Q01DX009 (ip), vehicle: saline with Tween-80 97 % of control

CCOCCc1ccccn1
inactive: dose: 12.5 mg/kg/injection, schedule: Q04DX003 (ip), vehicle: saline 106 % of control | dose: 25.0 mg/kg/injection, schedule: Q04DX003 (ip), vehicle: saline 100 % of control | dose: 50.0 mg/kg/injection, schedule: Q04DX003 (ip), vehicle: saline 96 % of control

CS(=O)(=O)c1ccnc2ccccc12
inactive: [15] 91 % of control | [11] 90 % of control

Cc1ccc(NC(=O)Nc2ccc(Cl)c(Cl)c2)cc1Cl
inactive: [16] 96 % of control | [15] 105 % of control

C1#CCCCCCC#CCCCC1
inactive: [10] 89 % of control | dose: 12.5 mg/kg/injection, schedule: Q04DX003 (ip), vehicle: saline with Tween-80 91 % of control | dose: 25.0 mg/kg/injection, schedule: Q04DX003 (ip), vehicle: saline with Tween-80 97 % of control | [6] 100 % of control | dose: 50.0 mg/kg/injection, schedule: Q04DX003 (ip), vehicle: saline with Tween-80 89 % of control and 94 % of control

Cc1cc([N+](=O)[O-])c(N)c([N+](=O)[O-])c1
inactive: [11] 100 % of control | [12] 93 % of control | [13] 100 % of control

CC(C)(C)OC(=O)NC(CCCCNC(=O)OCc1ccccc1)C(=O)O (stereo not given)
inactive: [6] 107 % of control | [7] 90 % of control

CCNc1nc(NC(C)C)nc(SC)n1
inactive: [6] 117 % of control | [7] 106 % of control | [14] 104 % of control

O=c1ccn(C2OC(CO)C(O)C2O)c(=O)[nH]1 (stereo not given)
inactive: dose: 16.0 mg/kg/injection, schedule: Q01DX009 (ip), vehicle: saline 100 % of control | dose: 32.0 mg/kg/injection, schedule: Q01DX009 (ip), vehicle: Klucel (hydroxypropylcellulose) (HPC) 98 % of control and 104 % of control | dose: 32.0 mg/kg/injection, schedule: Q01DX009 (ip), vehicle: saline 96 % of control and 101 % of control | dose: 64.0 mg/kg/injection, schedule: Q01DX009 (ip), vehicle: Klucel (hydroxypropylcellulose) (HPC) 99 % of control and 101 % of control | dose: 64.0 mg/kg/injection, schedule: Q01DX009 (ip), vehicle: saline 93 % of control and 98 % of control | dose: 128.0 mg/kg/injection, schedule: Q01DX009 (ip), vehicle: Klucel (hydroxypropylcellulose) (HPC) 103 % of control | dose: 128.0 mg/kg/injection, schedule: Q01DX009 (ip), vehicle: saline 101 % of control and 114 % of control | dose: 256.0 mg/kg/injection, schedule: Q01DX009 (ip), vehicle: Klucel (hydroxypropylcellulose) (HPC) 97 % of control and 103 % of control | dose: 256.0 mg/kg/injection, schedule: Q01DX009 (ip), vehicle: saline 100 % of control and 110 % of control | dose: 512.0 mg/kg/injection, schedule: Q01DX009 (ip), vehicle: Klucel (hydroxypropylcellulose) (HPC) 102 % of control and 108 % of control | dose: 512.0 mg/kg/injection, schedule: Q01DX009 (ip), vehicle: saline 105 % of control

O=C(OC1CC2CC=CC21)c1ccc([N+](=O)[O-])cc1 (stereo not given)
inactive: [17] 100 % of control | [18] 94 % of control | dose: 400.0 mg/kg/injection, schedule: Q04DX003 (ip), vehicle: saline with Tween-80 94 % of control

COc1ccc(C2CCC(=O)CC2C(=O)O)cc1 (stereo not given)
inactive: dose: 100.0 mg/kg/injection, schedule: Q04DX003 (ip), vehicle: Klucel (hydroxypropylcellulose) (HPC) 94 % of control | dose: 400.0 mg/kg/injection, schedule: Q04DX003 (ip), vehicle: Klucel (hydroxypropylcellulose) (HPC) 100 % of control

N#Cc1ccc(NC(=O)Nc2nccs2)cc1
inactive: dose: 12.5 mg/kg/injection, schedule: Q01DX009 (ip), vehicle: distilled water + Tween-80 115 % of control

Nc1nc(=S)c2ncn(C3OC(COC(=O)c4ccccc4)C(OC(=O)c4ccccc4)C3OC(=O)c3ccccc3)c2[nH]1 (stereo not given)
inactive: [19] 115 % of control

CC(=O)OCC(OC(C)=O)C(OC(C)=O)C(OC(C)=O)C(C#N)OC(C)=O (stereo not given)
inactive: dose: 100.0 mg/kg/injection, schedule: Q01DX005 (ip), vehicle: saline with Tween-80 104 % of control | [17] 86 % of control | dose: 200.0 mg/kg/injection, schedule: Q01DX005 (ip), vehicle: saline with Tween-80 100 % of control | [18] 97 % of control | dose: 400.0 mg/kg/injection, schedule: Q01DX005 (ip), vehicle: saline with Tween-80 97 % of control

CCC(NC(=O)OC(C)(C)C)C(=O)O (stereo not given)
inactive: [1] 100 % of control | [2] 95 % of control | [3] 95 % of control | [4] 88 % of control and 96 % of control

Cc1cc(N(C)C)cc(C)c1N=Nc1cc[n+]([O-])cc1
inactive: dose: 3.13 mg/kg/injection, schedule: Q01DX009 (ip), vehicle: saline with Tween-80 98 % of control | dose: 6.25 mg/kg/injection, schedule: Q01DX009 (ip), vehicle: saline with Tween-80 100 % of control | [10] 105 % of control | [19] 108 % of control | [6] 95 % of control and 113 % of control

Clc1ccc(COC(Cn2ccnc2)c2ccc(Cl)cc2Cl)c(Cl)c1 (stereo not given)
inactive: [16] 106 % of control | [15] 115 % of control | [11] 96 % of control | [12] 106 % of control

CCCCCn1c(C)cc(/C=C\c2ccc3cc(C)ccc3[n+]2C)c1C
inactive: dose: 0.62 mg/kg/injection, schedule: Q01DX009 (ip), vehicle: Klucel (hydroxypropylcellulose) (HPC) 93 % of control | dose: 1.25 mg/kg/injection, schedule: Q01DX009 (ip), vehicle: Klucel (hydroxypropylcellulose) (HPC) 87 % of control

COc1ccccc1NC(=O)Oc1ccc(OCc2ccccc2)cc1
inactive: [7] 105 % of control | [14] 97 % of control | dose: 400.0 mg/kg/injection, schedule: Q01DX009 (ip), vehicle: saline with Tween-80 92 % of control

N=Cc1c(O)[nH]c(=O)[nH]c1=O
inactive: dose: 150.0 mg/kg/injection, schedule: Q01DX009 (ip), vehicle: Klucel (hydroxypropylcellulose) (HPC) 87 % of control | dose: 300.0 mg/kg/injection, schedule: Q01DX009 (ip), vehicle: Klucel (hydroxypropylcellulose) (HPC) 95 % of control
